Test results: patent publication US20130123364A1 (priority 2011, published 2013)
Entries after “also recorded” stand apart in the source; their conditions may differ.

Test system: lung alveoli of mice damaged by toxic tobacco smoke exposure
Assay: Mouse model of intoxication by chronic inhalation of tobacco smoke, L-NIL in drinking water
Assay type: in vivo
Experimental: The regeneration and healing of the lung alveoli by L-NIL is shown in a mouse model of intoxication by chronic inhalation of tobacco smoke. In this model, mice are exposed to a stream of tobacco smoke in a concentration of 140 mg/m^3 for 6 h per day, 5 days a week over a period of up to 8 month.
The structural and functional pulmonary changes due to toxic smoke exposure were quantified with techniques suitable for this purpose. To assess the degree of alveolar damage, the mean linear intercept, alveolar septal wall thickness and the air space volume was quantified.
Parameters for the extent of vascular remodeling comprise the measurement of vascular wall thickness, staining for alpha-smooth muscle actin and von-Willebrand factor as well as the mean cross-sectional area of the vessels.
Functional measurements include the quantification of the lung function in spontaneously breathing as well as artificially ventilated mice with respect to airway resistance, lung compliance and volume flow. To evaluate functional changes of the vessels, lungs are investigated in an isolated perfused and ventilated experimental set-up, and pulmonary vascular resistance and reactivity are measured. The vascular reactivity is determined by quantifying the extent of vasoconstriction after addition of phenylephrine and can be deduced from dose/effect curves.
In a second experiment, L-NIL was administered orally via drinking water in a concentration of 600 μg/ml for a period for 3 months to treat mice with alveolar damage/destruction as a result of 8 months of toxic smoke exposure.

[1] = curative: oral L-NIL in drinking water 600 μg/ml for 3 months after 8 months of toxic smoke exposure

[H]/N=C(/C)NCCCC[C@H](N)C(=O)O [L-NIL, N^6-(1-iminoethyl)-L-lysine] was tested, and the “Proliferation, PCNA-positive cells in lung sections (FIGS. 5A to 5D)” value (L-NIL for 3 month after lung exposure to toxic smoke for 8 months) was “induction of proliferation”, the “Elastic fibers network, elastin-stained lungs (FIGS. 3A to 3D)” value (L-NIL treatment after destruction by toxic tobacco smoke exposure) was “regeneration of the elastic fibers network” and the “Total number of alveoli assessed by quantitative stereology (FIG. 2)” value (L-NIL treatment after toxic tobacco smoke exposure) was “regeneration of alveoli”. For the same compound, the Lung function [1] was “lung function improvement”, the “Regeneration of alveolar lung structure” value [1] was “regeneration of the damaged or destroyed lung alveoli; also recorded: complete regeneration of the alveolar lung structure” and the “Protection against alveolar damage/destruction (alveolar morphometry and lung functional measurements)” value (preventive: oral L-NIL in drinking water 600 μg/ml in parallel to smoke exposure over 8 months) was “complete protection against alveolar damage/destruction”.
